Assay results from patent US20060063244A1, “Methods and composition for the production of orthogonal tRNA-aminoacyltRNA synthetase pairs” (The Scripps Research Institute, priority 2001, published 2006).

What was measured:
[1] = test system: valine position in the native protein; conditions: edit-defective ValRS strain grown with Abu; cited from earlier work
mutant TyrRS = target: T1, mutant TyrRS (Methanocaldococcus jannaschii, UniProt Q57834, D158A/E107T/L162P/N268S/Y32Q); test: Pyrophosphate-exchange assay of adenylate formation; type: biochemical, Methanococcus jannaschii
T1 construct: His6 (C); made in house
Procedure: (§1) Kinetics of adenylate formation of O-methyl-L-tyrosine and tyrosine with adenosine triphosphate (ATP) catalyzed by the mutant TyrRS were analyzed in vitro using a pyrophosphate-exchange assay at 37° C. For example, the mutant TyrRS gene with six histidines at its C-terminus was cloned into plasmid pQE-60 (Qiagen, CA) to generate plasmid pQE-mJYRS. Protein was purified by immobilized metal affinity chromatography according to manufacture's protocol (Qiagen, CA). Pyrophosphate (PPi) exchange was carried out at 37° C. in a reaction mixture containing 100 mM TrisHCl (pH7.5), 10 mM KF, 5 mM MgCl2, 2 mM ATP, 2 mM NaPPi, 0.1 mg/mL bovine serum albumin, approximately 0.01 μCi/μL [^32P]NaPPi, and various concentrations of tyrosine or O-methyl-L-tyrosine. Reactions were initiated with the addition of the purified mutant TyrRS, and aliquots were periodically taken and quenched with 0.2 M NaPPi, 7% perchloric acid, and 2% activated charcoal. The charcoal was filtered and washed with 10 mM NaPPi (pH2), then measured by scintillation counting to determine the ^32P levels in charcoal-adsorbed ATP. Values of kcat and Km were calculated by direct fitting of the Michaelis-Menten equation using nonlinear regression analysis.

amber nonsense codon = test: Fidelity of translation by analysis of dihydrofolate reductase containing the unnatural amino acid; type: cell-based, Escherichia coli; conditions: incorporation in response to amber nonsense codon
Text: A unique transfer RNA (tRNA)-aminoacyl tRNA synthetase pair has been generated that expands the number of genetically encoded amino acids in Escherichia coli. When introduced into Escherichia coli, this pair leads to the in vivo incorporation of the synthetic amino acid O-methyl-L-tyrosine, added exogenously to the growth medium, into protein in response to an amber nonsense codon. The fidelity of translation is greater than 99%, as determined by analysis of dihydrofolate reductase containing the unnatural amino acid. This approach provides a general method for increasing the genetic repertoire of living cells to include a variety of amino acids with novel structural, chemical and physical properties not found in the common twenty amino acids.

Escherichia coli = test: Effect on growth of Escherichia coli host cells; type: cell-based; conditions: 1 mM added to medium
[2] = test system: yeast PheRS / Escherichia coli PheRS; conditions: cited from earlier work
E. coli cells = test: LC/MS analysis of toluenized E. coli cells grown with unnatural amino acid; type: cell-based; conditions: E. coli grown in the presence of the amino acid
Text: Generality of aminoacyl tRNA synthetase evolution. […] The enzyme can be evolved to accommodate a variety of functionalities in place of the phenol side chain of tyrosine and can do so with high selectivity. […] It was not possible to identify an enzyme variant that could accept the pCF unnatural amino acid. A second attempt to evolve a synthetase to accept the pCF amino acid was also unsuccessful.

[3] = test system: COc1ccc(C[C@H](N)C(=O)O)cc1; test: Pyrophosphate-exchange assay of adenylate formation; type: biochemical, Methanococcus jannaschii; conditions: other: mutant TyrRS, 37° C.
Procedure: as §1

[4] = test system: N[C@@H](Cc1ccc(O)cc1)C(=O)O; test: as above; type: biochemical, Methanococcus jannaschii; conditions: other: mutant TyrRS, 37° C.
Procedure: as §1

[5] = test system: Escherichia coli total tRNA / purified tRNA from Halobacterium; test: In vitro aminoacylation by archaeal leucyl-tRNA synthetases; type: biochemical
Procedure: The next step involved determination of a synthetase that charges the suppressor tRNA without interacting with host tRNA. The two chosen systems, Methanobacterium thermoautotrophicum and Methanococcus jannaschii were expressed, and aminoacylation was performed in vitro on purified tRNA from Halobacterium as a positive control, and for Escherichia coli total tRNA.

[6] = In vitro aminoacylation with leucine and methionine by editing-domain mutants of Methanobacterium thermoautotrophicum RS; type: biochemical
Text: Next, point mutations were made in the editing domain. The catalytic core of the editing domain is well conserved across species and even for different amino acids, at least for the family of branched chain amino acids. Several of these conserved sites have previously been mutated, for example a T→P mutation, and found to knock out editing function. Mutants of Methanobacterium thermoautotrophicum RS were constructed that were similar to several known mutants, and also a 20 member NNK library derived from T214 was made. Proteins were expressed and examined in vitro for aminoacylation with leucine and methionine. None of the previously identified mutations were transferable to our system, but a desirable mutation was identified from the T214 library.

T1 sequence (Q57834 whole entry Y32Q/E107T/D158A/L162P/N268S): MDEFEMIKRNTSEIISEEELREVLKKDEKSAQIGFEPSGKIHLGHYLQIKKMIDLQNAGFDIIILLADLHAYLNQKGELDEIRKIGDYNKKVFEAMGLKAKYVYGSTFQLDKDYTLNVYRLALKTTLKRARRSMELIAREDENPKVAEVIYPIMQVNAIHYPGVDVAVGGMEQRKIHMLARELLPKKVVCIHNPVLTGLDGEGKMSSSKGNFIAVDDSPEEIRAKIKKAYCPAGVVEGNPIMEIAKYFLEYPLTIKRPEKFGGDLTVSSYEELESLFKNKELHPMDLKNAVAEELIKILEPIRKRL

CCC(N)C(=O)O (centres unmarked) [Abu, aminobutyrate]
valines replaced at each valine position [1]: about 24%

COc1ccc(C[C@H](N)C(=O)O)cc1 [O-methyl-L-tyrosine]
kcat/Km relative to tyrosine (mutant TyrRS): about 100 fold
fidelity of translation (amber nonsense codon): greater than 99%
effect on growth rate of Escherichia coli (Escherichia coli): does not significantly affect the growth rate

N[C@@H](Cc1ccc(F)cc1)C(=O)O [p-F-Phe, p-fluorophenylalanine]
share found at the Phe codon positions [2]: 7%
share at the mutagenesis site ([2]; excess p-F-Phe in growth media): 64-75%

N[C@@H](Cc1ccc(C(=O)O)cc1)C(=O)O [pCF, p-Carboxyl-Phenylalanine]
detection in cells by LC/MS (E. coli cells): could not be detected

N[C@@H](Cc1ccc(O)cc1)C(=O)O [tyrosine]
Km relative to O-methyl-L-tyrosine (mutant TyrRS): approximately 13 fold
kcat relative to O-methyl-L-tyrosine (mutant TyrRS): eight fold less

mutant TyrRS (Methanocaldococcus jannaschii DSM 2661; D158A/E107T/L162P/N268S/Y32Q)
Km [3]: 0.443 ± 0.093 mM
kcat [3]: 14±1×10^−3 s^−1
Km [4]: 5.833 ± 0.902 mM
kcat [4]: 1.8±0.2×10^−3 s^−1

B1: Methanobacterium thermoautotrophicum synthetase: leucyl-tRNA synthetase from Methanobacterium thermoautotrophicum (protein, UniProt O27552 1-937, looked up)
Leucine--tRNA ligase: MDIERKWRDRWRDAGIFQADPDDREKIFLTVAYPYPSGAMHIGHGRTYTVPDVYARFKRMQGYNVLFPMAWHVTGAPVIGIARRIQRKDPWTLKIYREVHRVPEDELERFSDPEYIVEYFSREYRSVMEDMGYSIDWRREFKTTDPTYSRFIQWQIRKLRDLGLVRKGAHPVKYCPECENPVGDHDLLEGEGVAINQLTLLKFKLGDSYLVAATFRPETIYGATNLWLNPDEDYVRVETGGEEWIISRAAVDNLSHQKLDLKVSGDVNPGDLIGMCVENPVTGQEHPILPASFVDPEYATGVVFSVPAHAPADFIALEDLRTDHELLERYGLEDVVADIEPVNVIAVDGYGEFPAAEVIEKFGVRNQEDPRLEDATGELYKIEHARGVMSSHIPVYGGMKVSEAREVIADELKDQGLADEMYEFAERPVICRCGGRCVVRVMEDQWFMKYSDDAWKDLAHRCLDGMKIIPEEVRANFEYYIDWLNDWACSRRIGLGTRLPWDERWIIEPLTDSTIYMAYYTIAHRLREMDAGEMDDEFFDAIFLDDSGTFEDLREEFRYWYPLDWRLSAKDLIGNHLTFHIFHHSAIFPESGWPRGAVVFGMGLLEGNKMSSSKGNVILLRDAIEKHGADVVRLFLMSSAEPWQDFDWRESEVIGTRRRIEWFREFGERVSGILDGRPVLSEVTPAEPESFIGRWMMGQLNQRIREATRALESFQTRKAVQEALYLLKKDVDHYLKRVEGRVDDEVKSVLANVLHAWIRLMAPFIPYTAEEMWERYGGEGFVAEAPWPDFSDDAESRDVQVAEEMVQNTVRDIQEIMKILGSTPERVHIYTSPKWKWDVLRVAAEVGKLDMGSIMGRVSAEGIHDNMKEVAEFVRRIIRDLGKSEVTVIDEYSVLMDASDYIESEVGARVVIHSKPDYDPENKAVNAVPLKPAIYLE
charging of Escherichia coli total tRNA versus Halobacterium tRNA [5]: specific towards the Halobacterium tRNA

B2: T214Q: editing-domain point mutant of Methanobacterium thermoautotrophicum leucyl-tRNA synthetase (protein, UniProt O27552 1-937, looked up, variant T214Q)
Leucine--tRNA ligase: MDIERKWRDRWRDAGIFQADPDDREKIFLTVAYPYPSGAMHIGHGRTYTVPDVYARFKRMQGYNVLFPMAWHVTGAPVIGIARRIQRKDPWTLKIYREVHRVPEDELERFSDPEYIVEYFSREYRSVMEDMGYSIDWRREFKTTDPTYSRFIQWQIRKLRDLGLVRKGAHPVKYCPECENPVGDHDLLEGEGVAINQLTLLKFKLGDSYLVAAQFRPETIYGATNLWLNPDEDYVRVETGGEEWIISRAAVDNLSHQKLDLKVSGDVNPGDLIGMCVENPVTGQEHPILPASFVDPEYATGVVFSVPAHAPADFIALEDLRTDHELLERYGLEDVVADIEPVNVIAVDGYGEFPAAEVIEKFGVRNQEDPRLEDATGELYKIEHARGVMSSHIPVYGGMKVSEAREVIADELKDQGLADEMYEFAERPVICRCGGRCVVRVMEDQWFMKYSDDAWKDLAHRCLDGMKIIPEEVRANFEYYIDWLNDWACSRRIGLGTRLPWDERWIIEPLTDSTIYMAYYTIAHRLREMDAGEMDDEFFDAIFLDDSGTFEDLREEFRYWYPLDWRLSAKDLIGNHLTFHIFHHSAIFPESGWPRGAVVFGMGLLEGNKMSSSKGNVILLRDAIEKHGADVVRLFLMSSAEPWQDFDWRESEVIGTRRRIEWFREFGERVSGILDGRPVLSEVTPAEPESFIGRWMMGQLNQRIREATRALESFQTRKAVQEALYLLKKDVDHYLKRVEGRVDDEVKSVLANVLHAWIRLMAPFIPYTAEEMWERYGGEGFVAEAPWPDFSDDAESRDVQVAEEMVQNTVRDIQEIMKILGSTPERVHIYTSPKWKWDVLRVAAEVGKLDMGSIMGRVSAEGIHDNMKEVAEFVRRIIRDLGKSEVTVIDEYSVLMDASDYIESEVGARVVIHSKPDYDPENKAVNAVPLKPAIYLE
charging with leucine [6]: capable of charging with leucine
charging with methionine [6]: capable of charging methionine

B3: Methanococcus jannaschii synthetase: leucyl tRNA synthetase cloned from Methanococcus jannaschii (protein, UniProt Q58050 1-942, looked up)
Leucine--tRNA ligase: MMVMIDFKEIEKKWQKRWEEAKIFEANPDDREKFFITAAFPYLNGVLHAGHLRTFTIPEVVARFQRMKNKNVLWTFGYHVTGTPILGLAELIKNRDEKTIWAYTELHGIPKEELLELTTPEKIVEYFSKKAEEAFKRMGFSLDWRRNFKTDDKVFNKFIEWQFHKLKEKGLIVKGSHPVRYCPRCDNPVEDHDILVGENATLVEYILIKFTTEDGCIMPMATLRPETVFGVTNVWVNPEATYVKAKVYLEKETENGIELIENGIWIMAKECAEKLKHQDRKIEIIEEFKGEQLINKKVKNPVTGKEVPILPAKFVKTNIGTGCVMSVPAHAPYDYIALRDLGLVDEIGLIPLINVPGYGKYPAKEIVEKMGIKSQEEEDKLEEATKKIYKDEFHKGVLNENCLDYEGIPVREIKDKLTKDLIDKGLAEIMYEFSEEKVICRCGTPCIVKMVKGQWFIKYSDEKWKELAHKCIDKMRFIPENLRQVFHEKIDWMKDKACVRRRGLGTKFPFEEGWVIESLSDSTIYPAYYTVAKYINQHNIKPEQLTLELFDYVFLGKGDVDKIAKETGIPKDIIEGMRKEFIYYYPVDWRCSAKDLIPNHLTFYIFNHVAIFPEEFWPRGIVVNGYVTIEGKKLSKSKGPVLPVLEVAEKFGADVGRFYITTCAELPQDADIKFKEMENTKKVLERLYLFAKEIAERRGETGEEFSYIDKWLLSRLYKAVKQYDEYMENFELRKAGILLYQLLDDLKWYRRRGGNNIRVLEEFLEVIIKLMMPFTPHLCEEMWEILGKEGFVSLAKFPEVKEEFINDEIEKGEEYLKAVMEDIKEIINVAKVQPKRIYLYTADDWKYEILKIIKENEGKTIKELMPIIMKNPEFRKYGKEIPKLVNQLIKLNAEIINEVEVLENAKEFLKKEVGVEDIIINGEDKANKKRVAIPFKPAIYLE
charging of Escherichia coli total tRNA versus Halobacterium tRNA [5]: able to effectively charge Escherichia coli tRNA
